Measurements published in patent US20100055047A1, “Methods for treating bronchial premalignancy and lung cancer” (priority 2008, published 2010).
Converted amounts (≈) assume the structure as drawn.

Legend:
[1] = Aerodynamic size of aerosol droplets (7-Stage Cascade Impactor); type: physicochemical; conditions: PARI compressor, LC star nebulizer, airflow 5 L/min
Method: Aerosol equipment. A PARI personal compressor and a LC star nebulizer were used in this study. The pressure should be 20-28 psi, and the aerosol generated rate should be 0.3±0.03 ml/min. Other clinically used aerosol equipment with similar functions can be used as well.
The aerodynamic diameters of aerosol droplets of 5-azacytidine were determined with extrusion-precipitation method using a 7-Stage Cascade Impactor (In-Tox Products, Albuquerque, N. Mex.) linked to PARI's personal compressor and LC star nebulizer system. 5-azacytidine solution (4 ml) was aerosolized under the airflow rate of 5 L/min. The condensed aerosol samples were collected at 3 different periods, from 1 to 1.5 min, from 3 to 3.5 min, and from 5 to 5.5 min. Aerodynamic size and fraction of aerosol with a particular size range were measured and calculated as per manufacturer's protocol. The data was mean±SD of the aerodynamic size based on weight (bars) and cumulative weight (line) from 3 independent experiments.

[2] = test system: Human NSCLC cell lines H358, H460, and A549; test: Cytotoxicity by MTT assay; type: cell-based; conditions: 72 h, 3 days exposure, range over the cell lines, read-out: IC50 (concentration inhibiting 50 percent cell growth)
Method: Cytotoxicity of 5-azacytidine. Human NSCLC cell lines H358, H460, and A549 were exposed to different concentrations of 5-azacytidine in a 96-well plate for 3 days. The cytotoxicity was measured by MTT assay.

[3] = test system: DAPK and E-cadherin in human NSCLC cell lines A549 and H460; test: Demethylation function: re-expression of DAPK and E-cadherin by Western blotting; type: cell-based; conditions: 24 hours exposure
Source text: DAPK and E-cadherin are important tumor suppressor proteins.

in vivo = conditions: ICR, mouse, in vivo, iv
Method: (§1) Acute toxicity. The dose limiting toxicity of intravenous 5-azacytidine or decitabine is severe myelosuppression. In order to test whether aerosol or intratracheal injection can reduce the myelotoxicity or alter the toxicity profile, a dose of 90 mg/kg, the maximum tolerated dose (MTD) for intravenous injection (IV) of 5-azacytidine, was used to treat ICR mice by intravenous injection to mimic current therapy. The same dose of intratracheal injection (IT) of 5-azacytidine was used to mimic aerosol administration (35). Complete blood count (CBC), creatinine, liver function tests, and pathological evaluation of H/E staining of lungs, kidney and liver were performed to assess for toxicity differences.

ICR mice = test: in vivo
Method: as §1

[4] = Dose finding: lethal toxicity and MTD; type: in vivo, mice; conditions: female, nude, mouse, in vivo, maximum dose causing 0% death, read-out: MTD (total dose)
Method: (§2) Dose finding. In order to use optimal therapeutic dose, the lethal toxicity and MTD for intratracheal injection (mimicking aerosol, IT) and intravenous injection (mimicking current most frequently used intravenous infusion and injection, IV) routes were determined in mice before the therapeutic experiment. Briefly, the nude mice (female, 6 weeks age) were inoculated with 4×10^6H460 cells intratracheally. One week later, they were randomly divided into several groups with 5 mice in each. Different groups of mice received different doses of IT 5Aza (range from 2.5 to 50 mg/kg qod×3) or IV 5Aza (range from 6.25 to 50 mg/k daily×6). The percentage of moribund mice in each group versus dose was used to simulate the dose response curves and determined the MTD. The maximum dose caused 0% death was defined as MTD. Under these experimental conditions, the MTD for both IT and IV 5Aza was 37.5 mg/kg or 112.5 mg/m^2 (total dose, FIG. 5-1). In considering the cytotoxicity results and the aerosol efficiency, 20% of IT MTD and 100% of IV MTD were used for the therapeutic studies.

[5] = test system: nude mice inoculated with H460 cells intratracheally; test: Dose finding: lethal toxicity and MTD; type: in vivo; conditions: maximum dose causing 0% death
Method: as §2

[6] = test system: orthotopic human NSCLC xenograft H460 in nude mice; test: Antitumor efficacy, orthotopic H460 NSCLC xenograft; type: in vivo
Method: (§3) Antitumor efficacy. In order to evaluate the antitumor efficacy of the airway administered demethylating agent and to compare the result with systemic treatment, orthotopic human NSCLC xenograft models in nude mice were developed by inoculating the tumor cells in the respiratory airway (35,36). In the first experiment, the mice bearing lung tumors were randomly divided into 3 groups with 5 mice in each. Ten days after the H460 tumor inoculation, one group of mice were treated with intratracheal injection of 2.5 mg/kg of 5-azacytidine every other day for 3 injections, another group of mice were treated with IV injections of 6.25 mg/kg every day for 6 injections via tail vein, and the last group of mice remained untreated. […] The median survival is 50, 80 and >109 days for no treatment, IV 5Aza, and IT 5Aza group, respectively (FIG. 5-2). The similar results were obtained from another experiment using an orthotopic H358 NSCLC model. In the second experiment, the treatment schedules and doses were the same as the first experiment. The median survival is 60, 73, and 98 days for no treatment, IV 5Aza, and IT 5Aza group, respectively (FIG. 5-3). In both experiments, the differences between IT 5Aza and IV 5Aza are statistically significant (p<0.01).

[7] = test system: orthotopic H358 NSCLC model in nude mice; test: Antitumor efficacy, orthotopic H358 NSCLC xenograft; type: in vivo
Method: as §3

lung cancer patients = conditions: intravenous or subcutaneous, not aerosol; one of the largest studies; transient; cited from earlier work
[8] = IT 2.5 mg/kg every other day for 3 injections
[9] = IV 6.25 mg/kg every day for 6 injections

Nc1ncn([C@@H]2O[C@H](CO)[C@@H](O)[C@H]2O)c(=O)n1 [5-azacytidine]
fraction of aerosol droplets measured between 0.2~3 μm in diameter [1]: about 97 % (weight)
IC50 [2]: 4 to 14 µg/mL (≈ 16.4 to 57.3 µM)
expressions of DAPK and E-cadherin [3]: significantly enhanced
MTD (in vivo): 90 mg/kg
highest white blood cell (WBC) reduction (ICR mice; ICR, mouse, in vivo, iv, 90 mg/kg, 4 day): 69±8.3%
lung toxicity (ICR mice; IT, 90 mg/kg): reversible lung toxicity that peaked on day 7, reduced on day 14
highest white blood cell (WBC) reduction (ICR mice; IT, 90 mg/kg, day 7): 11±1.0%
Toxicity grade of lungs (ICR mice; IT, Day 7): 1-2
hepatic or renal toxicities (ICR mice; mouse, in vivo, 90 mg/kg): no hepatic or renal toxicities
hepatic or renal toxicities (ICR mice; mouse, in vivo, iv, 90 mg/kg): no hepatic or renal toxicities
MTD ([4]; other: intratracheal injection, IT, qod×3): 37.5 mg/kg
MTD at 6 days ([4]; IV, daily×6): 37.5 mg/kg
MTD (total dose) ([5]; IT, qod×3): 112.5 mg/m^2
MTD (total dose) ([5]; IV, daily×6): 112.5 mg/m^2
median survival [6, 8]: > 109 days
median survival [6, 9]: 80 days
median survival [7, 8]: 98 days
median survival [7, 9]: 73 days
partial remission in lung cancer patients (lung cancer patients): one of 24 lung cancer patients had a partial remission
